Test results taken from US20230265116A1, “DEGRADATION OF (EGFR) BY CONJUGATION OF EGFR INHIBITORS WITH E3 LIGASE LIGAND AND METHODS OF USE” (BEIGENE, LTD., priority 2020, published 2023).
Counter-ions that a name gives are not always drawn.

Tests used:
[1] = target: T1, EGFR L858R/T790M (H1975-clone #36, homozygous) (Homo sapiens, UniProt P00533, L858R/T790M); test: EGFR degradation HTRF assay, H1975-clone #36 cells; type: cell-based; details: H1975 #36, 16h treatment; for Dmax: NCI-H1975, maximum percentage of degradation
T1 construct: designed to specifically target WT EGFR but preserve the L858R/T790M copy; host or cells: H1975-clone #36
T1 sequence (P00533 25-1210 T790M/L858R): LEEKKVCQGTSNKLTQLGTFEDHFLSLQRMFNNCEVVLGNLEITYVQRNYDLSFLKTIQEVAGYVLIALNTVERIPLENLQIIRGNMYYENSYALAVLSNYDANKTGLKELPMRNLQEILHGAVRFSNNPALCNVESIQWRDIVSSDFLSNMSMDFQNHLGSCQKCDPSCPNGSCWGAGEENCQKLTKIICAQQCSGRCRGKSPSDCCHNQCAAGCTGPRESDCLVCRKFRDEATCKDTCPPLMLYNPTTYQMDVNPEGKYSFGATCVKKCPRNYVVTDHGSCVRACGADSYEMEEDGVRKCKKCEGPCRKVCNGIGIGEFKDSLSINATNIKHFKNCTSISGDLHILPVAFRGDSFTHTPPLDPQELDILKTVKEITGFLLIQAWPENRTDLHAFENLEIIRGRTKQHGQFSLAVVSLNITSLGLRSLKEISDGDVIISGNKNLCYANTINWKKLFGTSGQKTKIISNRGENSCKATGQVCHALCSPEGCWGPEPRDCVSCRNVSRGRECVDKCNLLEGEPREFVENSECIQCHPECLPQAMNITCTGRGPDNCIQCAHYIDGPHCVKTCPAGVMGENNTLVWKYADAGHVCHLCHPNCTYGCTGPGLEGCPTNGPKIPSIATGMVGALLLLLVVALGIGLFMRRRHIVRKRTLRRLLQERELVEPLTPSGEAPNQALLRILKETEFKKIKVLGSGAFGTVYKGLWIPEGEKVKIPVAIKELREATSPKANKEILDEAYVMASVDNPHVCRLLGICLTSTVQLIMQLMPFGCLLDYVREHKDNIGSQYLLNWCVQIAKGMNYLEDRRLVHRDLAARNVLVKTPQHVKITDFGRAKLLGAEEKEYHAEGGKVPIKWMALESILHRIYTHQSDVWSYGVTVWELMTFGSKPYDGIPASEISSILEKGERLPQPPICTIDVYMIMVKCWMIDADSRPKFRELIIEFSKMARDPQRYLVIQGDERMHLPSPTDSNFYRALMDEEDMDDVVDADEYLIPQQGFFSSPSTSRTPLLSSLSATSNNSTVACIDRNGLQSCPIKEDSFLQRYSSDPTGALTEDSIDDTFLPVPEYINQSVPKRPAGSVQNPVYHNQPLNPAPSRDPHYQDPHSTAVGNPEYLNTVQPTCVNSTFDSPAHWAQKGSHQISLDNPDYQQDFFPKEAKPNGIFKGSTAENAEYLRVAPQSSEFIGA
Protocol: H1975-clone #36(L858R/T790M). H1975 cell heterozygously (from ATCC) contains alleles of WT and L858R/T790M EGFR. H1975-clone #36(L858R/T790M) was generated by gene knockout, in which the EGFR targeting sgRNA was designed to specifically target WT EGFR but preserve the L858R/T790M copy. Followed by the gene knockout, the edited H1975 cells were seeded in 96 well plates at the concentration of 1 cell/well, cultured for about 2 weeks to allow single clones formation. The formed clones were screened by DNA sequencing for the desired edition. H1975-clone #36 was confirmed as a homozygous L858R/T790M EGFR clone.
BaF3 WT(wild type), BaF3-LTC(L858R/T790M/C797S) and BaF3-DTC(Del19/T790M/C797S) cells are treated with compounds diluted in 0.2% DMSO cell culture medium and incubate for 16h, 37° C., 5% CO2, H1975-#36, H1975-#28, H1975-#23 and HCC827 cells are treated with compounds diluted in 0.2% DMSO cell culture medium on day 2, incubate for 16h, 37° C., 5% CO2.the final concentriation of compounds in all assay is start with 10 uM, 5-fold dilution, total 8 doses were included.
After 16h treatment, add HTRF lysis buffer to each well; seal the plate and incubate 1 hour at room temperature on a plate shaker; Once the cells are lysed, 16 μL of cell lysate are transferred to a PE 384-well HTRF detection plate; 4 μL of pre-mixed HTRF antibodies are added to each well; Cover the plate with a plate sealer, spin 1000 rpm for 1 min, Incubate overnight at room temperature; Read on BMG PheraStar with HTRF protocol (337 nm-665 nm-620 nm).
The inhibition (degradation) percentage of the compound was calculated by the following equation: Inhibition percentage of Compound=100-100×(Signal-low control)/(High control-low control), wherein signal=each test compound group
High control=Cell group with added DMSO and without compound, indicating microplate readings without EGFR degradation;
Dmax is the maximum percentage of inhibition (degradation).
The IC50 (DC50) value of a compound can be obtained by fitting the following equation
Y=Bottom+(TOP−Bottom)/(1+((IC50/X)^hillslope))
Wherein, X and Y are known values, and IC50, Hillslope, Top and Bottom are the parameters obtained by fitting with software. Y is the inhibition percentage (calculated from the equation), X is the concentration of the compound; IC50 is the concentration of the compound when the 50% inhibition is reached. The smaller the IC50 value is, the stronger the inhibitory ability of the compound is. Vice versa, the higher the IC50 value is, the weaker the inhibitory ability of the compound is; Hillslope represents the slope of the fitted curve, generally around 1*; Bottom represents the minimum value of the curve obtained by data fitting, which is generally 0%±20%; Top represents the maximum value of the curve obtained by data fitting, which is generally 100%±20%. The experimental data were fitted by calculating and analyzing with Dotmatics data analysis software.

[2] = target: T2, EGFR (HCC827 cells) (Homo sapiens, UniProt P00533, DEL746-750); test: EGFR degradation HTRF assay, HCC827 cells; type: cell-based; details: HCC827, 16h treatment; for Dmax: maximum percentage of degradation
T2 construct: endogenous in cells; host or cells: HCC827
T2 sequence (P00533 with tags, fused parts or gaps DEL746-750): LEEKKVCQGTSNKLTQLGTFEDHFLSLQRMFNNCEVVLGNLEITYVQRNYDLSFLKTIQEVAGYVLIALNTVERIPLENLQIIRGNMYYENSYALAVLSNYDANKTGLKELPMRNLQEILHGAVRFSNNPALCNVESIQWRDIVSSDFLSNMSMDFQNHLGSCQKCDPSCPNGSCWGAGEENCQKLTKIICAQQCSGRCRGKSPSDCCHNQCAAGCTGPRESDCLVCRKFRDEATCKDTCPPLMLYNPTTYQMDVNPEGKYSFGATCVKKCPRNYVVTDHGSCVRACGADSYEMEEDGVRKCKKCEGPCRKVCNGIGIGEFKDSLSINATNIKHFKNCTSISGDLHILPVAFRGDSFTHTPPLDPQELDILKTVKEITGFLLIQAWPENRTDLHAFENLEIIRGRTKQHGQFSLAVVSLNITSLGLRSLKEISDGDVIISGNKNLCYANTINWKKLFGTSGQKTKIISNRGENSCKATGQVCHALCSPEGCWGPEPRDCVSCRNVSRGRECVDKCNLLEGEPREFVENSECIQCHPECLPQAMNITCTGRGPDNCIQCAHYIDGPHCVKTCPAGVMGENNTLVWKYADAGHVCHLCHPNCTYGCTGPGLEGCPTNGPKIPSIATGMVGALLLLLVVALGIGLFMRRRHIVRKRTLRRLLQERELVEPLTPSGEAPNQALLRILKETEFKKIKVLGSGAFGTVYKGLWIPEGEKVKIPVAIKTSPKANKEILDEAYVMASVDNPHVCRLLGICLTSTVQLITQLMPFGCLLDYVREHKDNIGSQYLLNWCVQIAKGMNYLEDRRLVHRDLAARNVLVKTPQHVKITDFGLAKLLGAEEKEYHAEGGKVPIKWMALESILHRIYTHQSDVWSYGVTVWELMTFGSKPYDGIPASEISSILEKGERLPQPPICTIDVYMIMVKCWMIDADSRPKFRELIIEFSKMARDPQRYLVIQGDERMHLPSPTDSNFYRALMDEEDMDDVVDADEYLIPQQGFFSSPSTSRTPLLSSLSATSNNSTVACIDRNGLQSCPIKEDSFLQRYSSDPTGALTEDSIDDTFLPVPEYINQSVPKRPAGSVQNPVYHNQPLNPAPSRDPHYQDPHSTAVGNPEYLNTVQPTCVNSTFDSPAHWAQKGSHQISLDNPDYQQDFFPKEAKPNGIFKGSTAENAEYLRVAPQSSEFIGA
Procedure, shortened: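 BaF3 (WT, Del19/T790M/C797S) and HCC827 cells exposed 16 h at 37 °C, 5% CO2 to compounds in 0.2% DMSO medium, 8 doses from 10 uM top, 5-fold steps. Lysates read by HTRF (665/620 nm); degradation % vs DMSO control, DC50 from four-parameter fit, Dmax as maximal degradation.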

Row | SMILES | DC50 [1] [nM] | Dmax [1] [%] | DC50 [2] [nM] | Dmax [2] [%]
1 | CCc1cc(Nc2ncc(Br)c(Nc3ccc4nccnc4c3P(C)(C)=O)n2)c(OC)cc1N1CCC(N2CCN(CCc3ccc(C4CCC(=O)NC4=O)cn3)CC2)CC1 (stereo not shown) [Example 13, 3-(6-(2-(4-(1-(4-((5-bromo-4-((5-(dimethylphosphoryl)quinoxalin-6-yl)amino)pyrimidin-2-yl)amino)-2-ethyl-5-methoxyphenyl)piperidin-4-yl)piperazin-1-yl)ethyl)pyridin-3-yl)piperidine-2,6-dione] | > 10000 | 42.8 | 9.48 | 78.9
2 | CCc1cc(Nc2ncc(Br)c(Nc3ccc4nccnc4c3P(C)(C)=O)n2)c(OC)cc1N1CCC(N2CCN(CCc3ccc(C4CCC(=O)NC4=O)c(C)c3)CC2)CC1 (stereo not shown) [Example 3, 3-(4-(2-(4-(1-(4-((5-bromo-4-((5-(dimethylphosphoryl)quinoxalin-6-yl)amino)pyrimidin-2-yl)amino)-2-ethyl-5-methoxyphenyl)piperidin-4-yl)piperazin-1-yl)ethyl)-2-methylphenyl)piperidine-2,6-dione] | > 10000 | 45.1 | 14.3 | 72.3
3 | COc1cc(N2CCN(CC3CCN(c4ccc(N5CCC(=O)NC5=O)c(C)c4)CC3)CC2)c(C)cc1Nc1ncc(Br)c(Nc2ccc3nccnc3c2P(C)(C)=O)n1 [Example 99, 1-(4-(4-((4-(4-((5-bromo-4-((5-(dimethylphosphoryl)quinoxalin-6-yl)amino)pyrimidin-2-yl)amino)-5-methoxy-2-methylphenyl)piperazin-1-yl)methyl)piperidin-1-yl)-2-methylphenyl)dihydropyrimidine-2,4(1H,3H)-dione] | > 10000 | 35.6 | 60.1 | 78.5
4 | CCc1cc(Nc2ncc(Br)c(Nc3ccc4nccnc4c3P(C)(C)=O)n2)c(OC)cc1N1CCC(N2CCN(CCOCCC(=O)N[C@H](C(=O)N3C[C@H](O)C[C@H]3C(=O)NCc3ccc(-c4scnc4C)cc3)C(C)(C)C)CC2)CC1 [Example 103, (2S,4R)-1-((S)-2-(3-(2-(4-(1-(4-((5-bromo-4-((5-(dimethylphosphoryl)quinoxalin-6-yl)amino)pyrimidin-2-yl)amino)-2-ethyl-5-methoxyphenyl)piperidin-4-yl)piperazin-1-yl)ethoxy)propanamido)-3,3-dimethylbutanoyl)-4-hydroxy-N-(4-(4-methylthiazol-5-yl)benzyl)pyrrolidine-2-carboxamide] | 43.1 | 79.6 | 28.8 | 84.2
5 | COc1cc(N2CCC(N(C)CC3CCN(c4ccc(C5CCC(=O)NC5=O)cc4)CC3)CC2)c(C)cc1Nc1ncc(Br)c(Nc2ccc3nccnc3c2P(C)(C)=O)n1 (stereo not shown) [Example 77, 3-(4-(4-(((1-(4-((5-bromo-4-((5-(dimethylphosphoryl)quinoxalin-6-yl)amino)pyrimidin-2-yl)amino)-5-methoxy-2-methylphenyl)piperidin-4-yl)(methyl)amino)methyl)piperidin-1-yl)phenyl)piperidine-2,6-dione] | 2.77 | 63 | 9.18 | 70.9
6 | CCc1cc(Nc2ncc(Br)c(Nc3ccc4nccnc4c3P(C)(C)=O)n2)c(OC)cc1N1CCC(N2CCN(CCOc3ccc(C4CCC(=O)NC4=O)cc3)CC2)CC1 (stereo not shown) [Example 17, 3-(4-(2-(4-(1-(4-((5-bromo-4-((5-(dimethylphosphoryl)quinoxalin-6-yl)amino)pyrimidin-2-yl)amino)-2-ethyl-5-methoxyphenyl)piperidin-4-yl)piperazin-1-yl)ethoxy)phenyl)piperidine-2,6-dione formate] | > 10000 | 6.77 | 25.4 | 73.3

Second part, the compound after the results:

Row | DC50 [1] [nM] | Dmax [1] [%] | DC50 [2] [nM] | Dmax [2] [%] | SMILES
7 | 641 | 74.7 | 103 | 83.4 | COc1cc(N2CCN(CC3CCN(c4ccc(N5CCC(=O)NC5=O)cc4)CC3)CC2)ccc1Nc1ncc(Cl)c(Nc2ccccc2P(C)(C)=O)n1 [Example 115, 1-(4-(4-((4-(4-((5-chloro-4-((2-(dimethylphosphoryl)phenyl)amino)pyrimidin-2-yl)amino)-3-methoxyphenyl)piperazin-1-yl)methyl)piperidin-1-yl)phenyl)dihydropyrimidine-2,4(1H,3H)-dione]
8 | 5.43 | 56.2 | 12.1 | 73 | COc1cc(N2CCC(N3CCN(CCCOc4ccc(NC5CCC(=O)NC5=O)cc4)CC3)CC2)ccc1Nc1ncc(Cl)c(Nc2ccccc2NS(C)(=O)=O)n1 (stereo not shown) [Example 143, N-(2-((5-chloro-2-((4-(4-(4-(3-(4-((2,6-dioxopiperidin-3-yl)amino)phenoxy)propyl)piperazin-1-yl)piperidin-1-yl)-2-methoxyphenyl)amino)pyrimidin-4-yl)amino)phenyl) methanesulfonamide]
9 | 6.63 | 62 | 17.9 | 75.4 | COc1cc(N2CCN(C3CN(C(=O)c4cnc(C(=O)Nc5ccc(C6CCC(=O)NC6=O)cc5)cn4)C3)CC2)ccc1Nc1ncc(Cl)c(Nc2ccccc2P(C)(C)=O)n1 (stereo not shown) [Example 116, 5-(3-(4-(4-((5-chloro-4-((2-(dimethylphosphoryl)phenyl)amino)pyrimidin-2-yl)amino)-3-methoxyphenyl)piperazin-1-yl)azetidine-1-carbonyl)-N-(4-(2,6-dioxopiperidin-3-yl)phenyl)pyrazine-2-carboxamide]
10 | 5.24 | 73.3 | 8.56 | 88.9 | COc1cc(N2CCC(N3CCN(CCc4ccc(NC5CCC(=O)NC5=O)cc4)CC3)CC2)ccc1Nc1ncc(Cl)c(Nc2ccccc2NS(C)(=O)=O)n1 (stereo not shown) [Example 140, N-(2-((5-chloro-2-((4-(4-(4-(4-((2,6-dioxopiperidin-3-yl)amino)phenethyl)piperazin-1-yl)piperidin-1-yl)-2-methoxyphenyl)amino)pyrimidin-4-yl)amino)phenyl)methanesulfonamide]
11 | 5.89 | 74.7 | 17.7 | 83.4 | COc1cc(N2CCC(N3CCN(CCc4ccc(C5CCC(=O)NC5=O)cc4)CC3)CC2)ccc1Nc1ncc(Cl)c(Nc2ccccc2P(C)(C)=O)n1 (stereo not shown) [Example 104, 3-(4-(2-(4-(1-(4-((5-chloro-4-((2-(dimethylphosphoryl)phenyl)amino)pyrimidin-2-yl)amino)-3-methoxyphenyl)piperidin-4-yl)piperazin-1-yl)ethyl)phenyl)piperidine-2,6-dione]
12 | 24.7 | 82.4 | 22.7 | 76 | COc1cc(N2CCC(N3CCN(CCCC4CN(c5ccc6c(c5)C(=O)N(C5CCC(=O)NC5=O)C6=O)C4)CC3)CC2)ccc1Nc1ncc(Cl)c(Nc2ccccc2P(C)(C)=O)n1 (stereo not shown) [Example 118, 5-(3-(3-(4-(1-(4-((5-chloro-4-((2-(dimethylphosphoryl)phenyl)amino)pyrimidin-2-yl)amino)-3-methoxyphenyl)piperidin-4-yl)piperazin-1-yl)propyl)azetidin-1-yl)-2-(2,6-dioxopiperidin-3-yl)isoindoline-1,3-dione]
13 | > 10000 | 27.2 | 103 | 73.5 | COc1cc(N2CCC(N3CCN(CCC4CCN(c5ccc(N6CCC(=O)NC6=O)c(F)c5)CC4)CC3)CC2)ccc1Nc1ncc(Cl)c(Nc2ccccc2N(C)S(C)(=O)=O)n1 [Example 125, N-(2-((5-chloro-2-((4-(4-(4-(2-(1-(4-(2,4-dioxotetrahydropyrimidin-1(2H)-yl)-3-fluorophenyl)piperidin-4-yl)ethyl)piperazin-1-yl)piperidin-1-yl)-2-methoxyphenyl)amino)pyrimidin-4-yl)amino)phenyl)-N-methylmethanesulfonamide]
